Reference: the supplement of paper PMC11061612

Legend:
Assay in all cases: Bliss excess, mean over the matrix (fraction); higher = more synergy
BT-20 (Breast Carcinoma) = system: BT-20 (Breast Carcinoma)
How it was run: (§1)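 After 24 hours at 37°C and 5% CO2 in 1536-well plates, cells in DMEM/F12 or RPMI plus 10% FBS received two-drug dose matrices for 72 hours. Viability came from CellTiter-Glo 2.0 luminescence and was scaled as inhibition, anchored at 0 by vehicle wells and at 1 by blank wells. Combination Emax is taken as the second-highest inhibition in the matrix, and Bliss excess as the observed combination effect less EA + EB − EA·EB, with EA and EB the single-agent effects.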

[1] = system: DG-75 (Burkitt's Lymphoma)
How it was run: as §1

[2] = system: EBC-1 (Squamous Cell Lung Carcinoma)
How it was run: as §1

[3] = system: EMC-BAC-2 (Non-Small Cell Lung Carcinoma)
How it was run: as §1

EW-13 (Ewing's Sarcoma) = system: EW-13 (Ewing's Sarcoma)
How it was run: as §1

EW-18 (Ewing's Sarcoma) = system: EW-18 (Ewing's Sarcoma)
How it was run: as §1

EW-3 (Ewing's Sarcoma) = system: EW-3 (Ewing's Sarcoma)
How it was run: as §1

GOTO (Neuroblastoma) = system: GOTO (Neuroblastoma)
How it was run: as §1

[4] = system: H-EMC-SS (Chondrosarcoma)
How it was run: as §1

[5] = system: HuP-T3 (Pancreatic Carcinoma)
How it was run: as §1

[6] = system: KYSE-50 (Esophageal Squamous Cell Carcinoma)
How it was run: as §1

[7] = system: LC4-1 (B-Lymphoblastic Leukemia)
How it was run: as §1

[8] = system: LOU-NH91 (Squamous Cell Lung Carcinoma)
How it was run: as §1

NB7 (Neuroblastoma) = system: NB7 (Neuroblastoma)
How it was run: as §1

[9] = system: NCI-H513 (Other Solid Carcinomas)
How it was run: as §1

[10] = system: OCUB-M (Breast Carcinoma)
How it was run: as §1

[11] = system: OCUM-1 (Gastric Carcinoma)
How it was run: as §1

[12] = system: OVISE (Ovarian Carcinoma)
How it was run: as §1

[13] = system: PF-382 (T-Lymphoblastic Leukemia)
How it was run: as §1

[14] = system: PFSK-1 (Other Solid Carcinomas)
How it was run: as §1

Row | SMILES | Bliss excess (BT-20 (Breast Carcinoma)) | Bliss excess [1] | Bliss excess [2] | Bliss excess [3] | Bliss excess (EW-13 (Ewing's Sarcoma)) | Bliss excess (EW-18 (Ewing's Sarcoma)) | Bliss excess (EW-3 (Ewing's Sarcoma)) | Bliss excess (GOTO (Neuroblastoma)) | Bliss excess [4] | Bliss excess [5] | Bliss excess [6] | Bliss excess [7] | Bliss excess [8] | Bliss excess (NB7 (Neuroblastoma)) | Bliss excess [9] | Bliss excess [10] | Bliss excess [11] | Bliss excess [12] | Bliss excess [13] | Bliss excess [14]
1 | Cn1cnc2c(F)c(Nc3ccc(Br)cc3Cl)c(C(=O)NOCCO)cc21 [Selumetinib] + CCN(CCO)CCCOc1ccc2c(Nc3cc(CC(=O)Nc4cccc(F)c4)[nH]n3)ncnc2c1 [AZD2811] (first compound max 10 µM, 7x7, partner max 1 µM) | 0.0328 | 0.0193 | -0.003 | 0.0094 | -0.0108 | -0.0241 | -0.0112 | -0.0175 | -0.0233 | -0.0526 | 0.005 | -0.0505 | -0.0096 | 0.0229 | -0.0583 | -0.0959 | 0.0153 | 0.0202 | 0.111 | -0.0438
2 | COc1nnc2ccc(N3CCC(c4ccc(OCCN5CCN(C)C(=O)[C@H]5C)cc4)CC3)nn12 [AZD5153] + CC1(C)CCC(CN2CCN(c3ccc(C(=O)NS(=O)(=O)c4ccc(NCC5CCOCC5)c([N+](=O)[O-])c4)c(Oc4cnc5[nH]ccc5c4)c3)CC2)=C(c2ccc(Cl)cc2)C1 [Venetoclax] (first compound max 1 µM, 7x7, partner max 1 µM) | -0.071 | -0.063 | -0.0413 | -0.101 | 0.0173 | -0.0371 | -0.0801 | -0.065 | -0.0508 | -0.102 | -0.0591 | -0.0482 | -0.0758 | -0.0287 | -0.086 | -0.0299 | -0.0456 | -0.013 | -0.0551 | -0.0853
3 | CC(=O)Nc1cccc(-n2c(=O)n(C3CC3)c(=O)c3c(Nc4ccc(I)cc4F)n(C)c(=O)c(C)c32)c1 [Trametinib] + Cc1nc(-c2cn3c(n2)-c2ccc(-c4cnn(C(C)(C)C(N)=O)c4)cc2OCC3)n(C(C)C)n1 [Taselisib] (first compound max 1 µM, 7x7, partner max 10 µM) | 0.118 | 0.0419 | 0.0674 | 0.0528 | -0.0107 | 0.0163 | 0.046 | 0.0482 | 0.106 | 0.118 | 0.108 | 0.107 | 0.116 | -0.0716 | 0.0563 | -0.0123 | 0.06 | 0.0114 | 0.234 | -0.0681
4 | CC(=O)c1c(C)c2cnc(Nc3ccc(N4CCNCC4)cn3)nc2n(C2CCCC2)c1=O [Palbociclib] + Cn1cnc2c(F)c(Nc3ccc(Br)cc3Cl)c(C(=O)NOCCO)cc21 [Selumetinib] (first compound max 10 µM, 7x7, partner max 10 µM) | 0.0253 | 0.028 | 0.0982 | 0.0049 | -0.0287 | -0.0542 | 0.0301 | 0.0623 | 0.008 | -0.014 | 0.0789 | 0.0312 | -0.0975 | 0.0136 | -0.035 | -0.0413 | -0.0321 | -0.0174 | 0.043 | -0.0505
5 | Cc1c2c(nn1C)CSCc1cc(n(C)n1)CSc1cc(c3ccccc3c1)OCCCc1c(C(=O)O)n(C)c3c-2c(Cl)ccc13 [AZD5991] + Cn1cnc2c(F)c(Nc3ccc(Br)cc3Cl)c(C(=O)NOCCO)cc21 [Selumetinib] (first compound max 1 µM, 7x7, partner max 3 µM) | 0.153 | -0.0023 | -0.0019 | 0.0081 | 0.0215 | 0.002 | -0.0435 | 0.0177 | -0.017 | 0.032 | -0.0049 | 0.0467 | -0.025 | -0.0259 | -0.0255 | 0.0322 | -0.0034 | -0.0588 | 0.0006 | 0.0395
6 | CN(CCO)CC[C@H](CSc1ccccc1)Nc1ccc(S(=O)(=O)NC(=O)c2ccc(N3CCC([C@@H](O)c4ccccc4-c4ccc(Cl)cc4)CC3)cc2)cc1S(=O)(=O)C(F)(F)F [AZD4320] + CN(C)CCCOc1ccc(-c2ccc3ncc4c(c3c2)n(C2CCOCC2)c(=O)n4C)cn1 [AZD0156] (first compound max 1 µM, 7x7, partner max 1 µM) | 0.0323 | -0.0183 | -0.0075 | -0.0683 | -0.0303 | 0.0042 | 0.0012 | -0.0041 | -0.0374 | -0.0429 | -0.0341 | 0.0937 | 0.0054 | -0.0333 | -0.0484 | 0.0044 | -0.055 | -0.0521 | -0.002 | 0.0427
7 | NC1(C(=O)N[C@@H](CCO)c2ccc(Cl)cc2)CCN(c2ncnc3[nH]ccc23)CC1 [Capivasertib] + CC(=O)c1c(C)c2cnc(Nc3ccc(N4CCNCC4)cn3)nc2n(C2CCCC2)c1=O [Palbociclib] (first compound max 10 µM, 7x7, partner max 10 µM) | -0.0038 | 0.0406 | 0.06 | -0.0727 | -0.0161 | -0.0276 | 0.0062 | 0.0599 | -0.0375 | -0.0457 | -0.0129 | 0.0772 | -0.0617 | 0.0291 | -0.0061 | -0.0127 | -0.0194 | -0.0235 | -0.0151 | 0.0014
8 | COc1cccc(OCCCN)c1-c1cc(Nc2cnc(C#N)cn2)n[nH]1 [Prexasertib] + CCc1c2c(nc3ccc(O)cc13)-c1cc3c(c(=O)n1C2)COC(=O)[C@]3(O)CC [SN-38] (first compound max 1 µM, 7x7, partner max 0.3 µM) | 0.0673 | 0.0019 | -0.0694 | -0.0767 | -0.0697 | -0.0728 | -0.0732 | -0.058 | -0.0116 | 0.0335 | 0.0461 | -0.0868 | -0.0648 | 0.0222 | -0.0068 | 0.258 | -0.101 | -0.136 | -0.0583 | -0.0513
9 | C[C@@H](c1ccc2nccn2c1)n1nnc2ncc(-c3cnn(C)c3)nc21 [Savolitinib] + Cc1c2c(nn1C)CSCc1cc(n(C)n1)CSc1cc(c3ccccc3c1)OCCCc1c(C(=O)O)n(C)c3c-2c(Cl)ccc13 [AZD5991] (first compound max 1 µM, 7x7, partner max 1 µM) | -0.0135 | -0.0204 | 0.0076 | -0.0767 | -0.0546 | -0.0113 | -0.0011 | -0.0227 | -0.0081 | -0.0526 | -0.0382 | -0.0133 | -0.0328 | -0.0221 | -0.0733 | -0.0393 | -0.0085 | -0.0291 | -0.0272 | 0.02
10 | COc1nnc2ccc(N3CCC(c4ccc(OCCN5CCN(C)C(=O)[C@H]5C)cc4)CC3)nn12 [AZD5153] + C=CCn1c(=O)c2cnc(Nc3ccc(N4CCN(C)CC4)cc3)nc2n1-c1cccc(C(C)(C)O)n1 [AZD1775] (first compound max 1 µM, partner max 1 µM) | -0.0856 | -0.0437 | 0.005 | -0.0014 | -0.0239 | -0.0163 | -0.122 | -0.0756 | -0.0488 | -0.0521 | 0.0211 | -0.0018 | 0.0216 | -0.0352 | -0.0857 | -0.0224 | -0.0217 | -0.0081 | -0.0176 | -0.109
11 | Cc1c2c(nn1C)CSCc1cc(n(C)n1)CSc1cc(c3ccccc3c1)OCCCc1c(C(=O)O)n(C)c3c-2c(Cl)ccc13 [AZD5991] + CN(C)CCCOc1ccc(-c2ccc3ncc4c(c3c2)n(C2CCOCC2)c(=O)n4C)cn1 [AZD0156] (first compound max 1 µM, 7x7, partner max 1 µM) | 0.0258 | -0.0286 | 0.0581 | -0.0313 | -0.0024 | -0.0213 | -0.0499 | -0.0418 | -0.0106 | -0.0479 | -0.0031 | -0.0177 | 0.01 | -0.0178 | -0.004 | 0.0178 | -0.016 | -0.0007 | 0.0109 | 0.0228
12 | C[C@@H](c1ccc2nccn2c1)n1nnc2ncc(-c3cnn(C)c3)nc21 [Savolitinib] + CC1(C)CCC(CN2CCN(c3ccc(C(=O)NS(=O)(=O)c4ccc(NCC5CCOCC5)c([N+](=O)[O-])c4)c(Oc4cnc5[nH]ccc5c4)c3)CC2)=C(c2ccc(Cl)cc2)C1 [Venetoclax] (first compound max 1 µM, 7x7, partner max 1 µM) | -0.0427 | -0.0021 | -0.0642 | -0.0816 | -0.0796 | -0.067 | 0.0364 | -0.0228 | -0.0186 | -0.0912 | -0.0636 | -0.0091 | -0.0801 | -0.0221 | -0.0719 | -0.0371 | -0.0368 | -0.0481 | -0.0402 | -0.0025
